The structures appear in SMILES notation. Values after ≈ are worked out from the molar mass of the structure shown. Active and inactive are the calls of the source. The calls are words filed in the database; no cut-off is given here. A value given as a limit tells only on which side of the number the result lay.

The record followed here is ChEMBL document CHEMBL4004877, “Synthesis and biological evaluation of chalcone, dihydrochalcone, and 1,3-diarylpropane analogs as anti-inflammatory agents” (Bioorg Med Chem Lett, 2017).

The subject of data set [1] is RAW264.7. As to the kind of experiment: Antiinflammatory activity in mouse RAW264.7 cells assessed as inhibition of LPS induced iNOS-dependent nitric oxide production at 1.25 ug/ml after 24 hrs by Griess assay relative to control. It counts as functional. As to conditions: RAW264.7, 24 h. In general terms: Nitrite, measured by Griess reagent, commonly stands in for NO production.

The subject of data set [2] is RAW264.7. The data set can be described thus: Antiinflammatory activity in mouse RAW264.7 cells assessed as inhibition of LPS induced iNOS-dependent nitric oxide production at 2.5 ug/ml after 24 hrs by Griess assay relative to control. To be noted: RAW264.7, 24 h. The data set is classed as functional.
For data set [3], the system named is RAW264.7. As to the kind of experiment: Antiinflammatory activity in mouse RAW264.7 cells assessed as inhibition of LPS induced iNOS-dependent nitric oxide production at 5 ug/ml after 24 hrs by Griess assay relative to control. It counts as functional. As to conditions: RAW264.7, 24 h.
For data set [4], the system named is RAW264.7. The data set can be described thus: Antiinflammatory activity in mouse RAW264.7 cells assessed as inhibition of LPS induced iNOS-dependent nitric oxide production at 10 ug/ml after 24 hrs by Griess assay relative to control. To be noted: RAW264.7, 24 h. It counts as functional.
Data set [5] has as its system RAW264.7. The data set can be described thus: Antiinflammatory activity in mouse RAW264.7 cells assessed as inhibition of LPS induced iNOS-dependent nitric oxide production after 24 hrs by Griess assay. The data set is classed as functional, cell-based. To be noted: RAW264.7, 24 h.
A short description of data set [6]: Cytotoxicity against LPS-stimulated mouse RAW264.7 cells assessed as cell viability at 1.25 ug/ml after 24 hrs by MTT assay relative to control. The data set is classed as cell-based. As to conditions: LPS-stimulated RAW264.7 cells, read-out: Activity. (Formazan colour is commonly taken as a measure of viable cells.)
Data set [7] is described as follows: Cytotoxicity against LPS-stimulated mouse RAW264.7 cells assessed as cell viability at 2.5 ug/ml after 24 hrs by MTT assay relative to control. The data set is classed as cell-based. To be noted: LPS-stimulated RAW264.7 cells, read-out: Activity.
Data set [8] can be described thus: Cytotoxicity against LPS-stimulated mouse RAW264.7 cells assessed as cell viability at 5 ug/ml after 24 hrs by MTT assay relative to control. To be noted: LPS-stimulated RAW264.7 cells, read-out: Activity. The data set is classed as cell-based.
A short description of data set [9]: Cytotoxicity against LPS-stimulated mouse RAW264.7 cells assessed as cell viability at 10 ug/ml after 24 hrs by MTT assay relative to control. The data set is classed as cell-based. To be noted: LPS-stimulated RAW264.7 cells, read-out: Activity.
Data set [10] has as its system RAW264.7. The data set can be described thus: Inhibition of iNOS expression in LPS-stimulated mouse RAW264.7 cells after 24 hrs by Western blot method. It counts as functional, cell-based. On the technique in general: A western blot detects proteins with antibodies after separation by electrophoresis.
Data set [11] deals with RAW264.7. The data set can be described thus: Inhibition of COX2 expression in LPS-stimulated mouse RAW264.7 cells at 2.5 to 10 ug/ml after 24 hrs by Western blot method. It counts as functional, cell-based.
The test system of data set [12] is RAW264.7. As to the kind of experiment: Inhibition of IkappaB-alpha expression in LPS-stimulated mouse RAW264.7 cells at 2.5 to 10 ug/ml preincubated for 1 hr followed by LPS challenge measured after 24 hrs by Western blot method. The data set is classed as functional, cell-based.
Data set [13] is filed under the species Mus musculus. As to the kind of experiment: Inhibition of ERK phosphorylation in LPS-stimulated mouse RAW264.7 cells at 2.5 to 10 ug/ml preincubated for 1 hr followed by LPS challenge measured after 24 hrs by Western blot method.
For data set [14], the species on record is Mus musculus. As to the kind of experiment: Inhibition of JNK phosphorylation in LPS-stimulated mouse RAW264.7 cells at 2.5 to 10 ug/ml preincubated for 1 hr followed by LPS challenge measured after 24 hrs by Western blot method.
For data set [15], the target named is MAP kinase p38 (Mus musculus) (UniProt P47811+O08911+Q9WUI1+Q9Z1B7). The data set can be described thus: Inhibition of p38 phosphorylation in LPS-stimulated mouse RAW264.7 cells at 2.5 to 10 ug/ml preincubated for 1 hr followed by LPS challenge measured after 24 hrs by Western blot method.
In data set [16] the test system is RAW264.7. As to the kind of experiment: Effect on non-phosphorylated ERK in LPS-stimulated mouse RAW264.7 cells at 2.5 to 10 ug/ml preincubated for 1 hr followed by LPS challenge measured after 24 hrs by Western blot method. To be noted: raw264.7, 24 h. The data set is classed as cell-based.
For data set [17], the system named is RAW264.7. As to the kind of experiment: Effect on non-phosphorylated JNK in LPS-stimulated mouse RAW264.7 cells at 2.5 to 10 ug/ml preincubated for 1 hr followed by LPS challenge measured after 24 hrs by Western blot method. It counts as cell-based. To be noted: raw264.7, 24 h.
Data set [18] concerns RAW264.7. The data set can be described thus: Effect on non-phosphorylated p38 in LPS-stimulated mouse RAW264.7 cells at 2.5 to 10 ug/ml preincubated for 1 hr followed by LPS challenge measured after 24 hrs by Western blot method. It counts as cell-based. To be noted: raw264.7, 24 h.

The term inhibition denotes how much of the control response was suppressed. As usually defined, the IC50 is the concentration at which inhibition is half-maximal. For `COc1ccc(CCCc2ccc(OC)c(OC)c2)c(O)c1`, the inhibition at 1.25 µg/mL in data set [1] worked out at 29.6%. Also, the inhibition at 2.5 µg/mL in data set [2] was determined as 60.5%. Also, the inhibition at 5 µg/mL in [3] amounted to 69.2%. Moreover, the inhibition at 10 µg/mL in data set [4] is 75.5%. Further, the IC50 in data set [5] amounted to 1.97 µg/mL (≈ 6.52 µM). Moreover, the viability at 24 h, 1.25 ug/ml in data set [6] was found to be 97.9%. For the same compound, in [7], the viability at 24 h, 2.5 ug/ml was 91.7%. In addition, the viability at 24 h, 5 ug/ml in data set [8] is 88.9%. The viability at 24 h, 10 ug/ml in data set [9] is 44.5%. Besides, the inhibition entry in [10] was “Dose-dependent effect”. The inhibition entry in data set [11], in data set [13], in [14] and in data set [15] was “Active” each time. The inhibition result in [12] is “inactive”. In addition, the Activity entry in data set [16], in data set [17] and in data set [18] was “Non-Toxic” in each case.

As to `COc1ccc(/C=C/C(=O)c2cccc(O)c2)c(OC)c1`, the inhibition at 1.25 µg/mL in data set [1] was 1.6%. The inhibition at 2.5 µg/mL in data set [2] stood at 2.3%. Besides, in data set [3], the inhibition at 5 µg/mL is 9%. Besides, the inhibition at 10 µg/mL in [4] was determined as 53.9%. Also, the IC50 in data set [5] came out at 9.42 µg/mL (≈ 33.1 µM). The viability at 24 h, 1.25 ug/ml in data set [6] amounted to 97.7%. Besides, the viability at 24 h, 2.5 ug/ml in data set [7] is 74%. Besides, in [8], the viability at 24 h, 5 ug/ml amounted to 63%. The viability at 24 h, 10 ug/ml in [9] is 61.6%.

Turning to `COc1ccc(CCCc2ccc(OC)c(OC)c2OC)c(O)c1`, the inhibition at 1.25 µg/mL in data set [1] was found to be 33.3%. Also, in [2], the inhibition at 2.5 µg/mL stood at 34.9%. Also, in [3], the inhibition at 5 µg/mL came out at 56.8%. In data set [4], the inhibition at 10 µg/mL was 68.1%. Further, the 50% inhibitory concentration (IC50) in data set [5] came out at 4.03 µg/mL (≈ 12.1 µM). The viability at 24 h, 1.25 ug/ml in [6] was 96.3%. The viability at 24 h, 2.5 ug/ml in data set [7] turned out to be 95.5%. For the same compound, in [8], the viability at 24 h, 5 ug/ml was 84.5%. Also, in data set [9], the viability at 24 h, 10 ug/ml came to 36.7%.

Consider `COc1ccc(CCC(=O)c2cccc(O)c2)cc1OC`, for which the inhibition at 1.25 µg/mL in [1] was found to be 5.4%. Moreover, the inhibition at 2.5 µg/mL in data set [2] was 18.6%. In addition, the inhibition at 5 µg/mL in [3] was found to be 46.2%. Also, the inhibition at 10 µg/mL in data set [4] was found to be 55.8%. Moreover, the IC50 in data set [5] stood at 6.58 µg/mL (≈ 23 µM). Also, the viability at 24 h, 1.25 ug/ml in data set [6] turned out to be 101%. Besides, the viability at 24 h, 2.5 ug/ml in data set [7] came out at 98.9%. Besides, the viability at 24 h, 5 ug/ml in data set [8] is 98%. Besides, the viability at 24 h, 10 ug/ml in data set [9] amounted to 97.9%.

For `COc1cc(CCCc2cccc(OC)c2OC)ccc1O`, in data set [1], the inhibition at 1.25 µg/mL was determined as 43.3%. Further, in [2], the inhibition at 2.5 µg/mL was 49.5%. Also, the inhibition at 5 µg/mL in [3] turned out to be 60.7%. Also, the inhibition at 10 µg/mL in data set [4] is 89.4%. Also, the IC50 in [5] turned out to be 2.57 µg/mL (≈ 8.5 µM). The viability at 24 h, 1.25 ug/ml in data set [6] was found to be 99.6%. In data set [7], the viability at 24 h, 2.5 ug/ml was 97.8%. The viability at 24 h, 5 ug/ml in [8] was determined as 97%. For the same compound, the viability at 24 h, 10 ug/ml in data set [9] was determined as 68.9%.

`COc1ccc(CCCc2cccc(OC)c2OC)c(O)c1`: the inhibition at 1.25 µg/mL in data set [1] is 21.5%. Also, the inhibition at 2.5 µg/mL in data set [2] stood at 30.3%. Besides, the inhibition at 5 µg/mL in data set [3] was found to be 30.7%. In addition, in data set [4], the inhibition at 10 µg/mL came out at 54.4%. For the same compound, the IC50 in data set [5] is 8.79 µg/mL (≈ 29.1 µM). Besides, in data set [6], the viability at 24 h, 1.25 ug/ml amounted to 99.1%. Further, the viability at 24 h, 2.5 ug/ml in data set [7] was found to be 99%. Besides, the viability at 24 h, 5 ug/ml in [8] came out at 95.2%. Further, the viability at 24 h, 10 ug/ml in data set [9] was 63%.

For `COc1cc(C(=O)/C=C/c2cccc(OC)c2OC)ccc1O`, the inhibition at 1.25 µg/mL in data set [1] came to 3.9%. Besides, the inhibition at 2.5 µg/mL in [2] turned out to be 3.1%. Moreover, the inhibition at 5 µg/mL in data set [3] is 3.2%. The inhibition at 10 µg/mL in [4] turned out to be 46.2%. Besides, the 50% inhibitory concentration (IC50) in [5] was > 10 µg/mL. The viability at 24 h, 1.25 ug/ml in data set [6] is 97.5%. Moreover, the viability at 24 h, 2.5 ug/ml in [7] amounted to 94%. Besides, the viability at 24 h, 5 ug/ml in data set [8] worked out at 67.8%. Moreover, the viability at 24 h, 10 ug/ml in data set [9] came out at 63.7%.
